Data taken from ChEMBL document CHEMBL6178021, “Optimization of Tambjamines Active against Multiple Stages of Malaria Parasites” (J Med Chem, 2025).
pIC50: −log10 of the molar value. Values after ≈ are worked out from the molar mass of the structure shown.

Assays:
in vitro [1] = settings: mouse, liver microsomes
Plasmodium falciparum [2] = assay: Antiplasmodial activity against asexual blood-stage Plasmodium falciparum Tm90-C2B using 2% haematocrit and 0.2% parasitemia assessed as reduction in fluorescence measured after 72 hrs by Malaria SYBR Green I-based Fluorescence (MSF) assay; type: functional, organism-based
MDR1 (human) [3] = assay: Apparent permeability across apical to basolateral side in MDCK transfected with human MDR1 cells incubated for 1 hr by LC-MS analysis; settings: dog, MDCK-MDR1
Plasmodium yoelii [4] = assay: Antimalarial activity against erythrocytic Plasmodium yoelii MRA-428 infected in CF1 mouse assessed as reduction in parasitemia at 50 mg/kg, po once daily for 4 days measured on day 5; type: functional; set-up: scale not given: the % may be the effect or the level left; settings: time 4 day
[5] = Solubility of the compound in potassium phosphate buffer at pH 7.4 by UV-vis spectroscopy; settings: buffer
[6] = Metabolic stability in human liver microsomes assessed as half life measured up to 60 mins by LC/MS analysis; type: ADME, Microsome
Plasmodium falciparum [7] = assay: microbe, parasite or virus in culture; settings: D6, 72 h
Description: Antiplasmodial activity against asexual blood-stage Plasmodium falciparum D6 using 2% haematocrit and 0.2% parasitemia assessed as reduction in fluorescence measured after 72 hrs by Malaria SYBR Green I-based Fluorescence (MSF) assay

HepG2 = assay: Cytotoxicity against human HepG2 cells assessed as cell viability measured after 48 hrs by MTT assay; type: toxicity, cell-based; settings: hepg2
Plasmodium yoelii [8] = assay: Antimalarial activity against erythrocytic Plasmodium yoelii MRA-428 infected in CF1 mouse assessed as reduction in parasitemia at 10 mg/kg, po once daily for 4 days measured on day 5; type: functional; set-up: scale not given: the % may be the effect or the level left; settings: time 4 day
in vitro [9] = settings: human, liver microsomes
MDR1 (human) [10] = assay: Apparent permeability across basolateral to apical side in MDCK transfected with human MDR1 cells incubated for 1 hr by LC-MS analysis; settings: dog, MDCK-MDR1
Plasmodium yoelii [11] = assay: Antimalarial activity against erythrocytic Plasmodium yoelii MRA-428 infected in CF1 mouse assessed as cured mouse at 50 mg/kg, po once daily for 4 days measured on day 28 day; type: functional, organism-based; settings: time 4.0 day
[12] = Metabolic stability in mouse liver microsomes assessed as half life measured up to 60 mins by LC/MS analysis; type: ADME, Microsome
Plasmodium yoelii [13] = assay: Antimalarial activity against erythrocytic Plasmodium yoelii MRA-428 infected in CF1 mouse assessed as cured mouse at 25 mg/kg, po once daily for 4 days measured on day 28 day; type: functional, organism-based; settings: time 4.0 day
Plasmodium falciparum [14] = assay: microbe, parasite or virus in culture; settings: Dd2, 72 h
Description: Antiplasmodial activity against asexual blood-stage Plasmodium falciparum Dd2 using 2% haematocrit and 0.2% parasitemia assessed as reduction in fluorescence measured after 72 hrs by Malaria SYBR Green I-based Fluorescence (MSF) assay

Plasmodium yoelii [15] = assay: Antimalarial activity against erythrocytic Plasmodium yoelii MRA-428 infected in CF1 mouse assessed as reduction in parasitemia at 25 mg/kg, po once daily for 4 days measured on day 5; type: functional; set-up: scale not given: the % may be the effect or the level left; settings: time 4 day

Structure (SMILES) | microsomal CLint at 1 h (in vitro [1]) [µL/min/mg] | pIC50 (Plasmodium falciparum [2]) | Papp A→B at 1 h (MDR1 (human) [3]) [×10⁻⁶ cm/s] | Activity (Plasmodium yoelii [4]) [%] | solubility [5] [µM] | half-life [6] [min] | pIC50 (Plasmodium falciparum [7]) | pIC50 (HepG2) | Activity (Plasmodium yoelii [8]) [%] | microsomal CLint at 1 h (in vitro [9]) [µL/min/mg] | Papp B→A at 1 h (MDR1 (human) [10]) [×10⁻⁶ cm/s] | Activity (Plasmodium yoelii [11]) | half-life [12] [min] | Activity (Plasmodium yoelii [13]) | pIC50 (Plasmodium falciparum [14]) | Activity (Plasmodium yoelii [15]) [%]
CCC1=C(CC)/C(=C/NC2CCCCC2)N=C1c1ccc[nH]1 | 34.5 | 7.10 | 0.22 | 100 | 307 (≈ 91.3 µg/mL) | 30.5 | 7.14 | 4.89 | 94.4 | 45.5 | 0.18 | Not active; None Of The Mouse Cured Out Of Four Tested | 40.1 | Not active; None Of The Mouse Cured Out Of Four Tested | 6.94 | 100
C(/NC1CCCCC1)=C1/N=C(c2ccc[nH]2)C2=C1OCCO2 | 86.4 | 7.36 | 0.33 |  | 231 (≈ 69.2 µg/mL) | 13.1 | 7.31 | 5.04 | 7.6 | 105 | 4.4 |  | 16.1 |  | 7.27 | 26.7
CCc1ccc(C2=N/C(=C\NC3CCCCC3)C(OC)=C2OC)[nH]1 | 52.8 | 8.40 | 0.21 |  | 99.6 (≈ 32.8 µg/mL) | > 60 | 7.99 | 4.94 | 12.3 | 16.8 | 0.49 |  | 26.2 |  | 7.81 | 12.1
COc1ccc(Cc2ccc(C3=N/C(=C\NC4CCCCC4)C4=C3CCCC4)[nH]2)cc1 | 9.87 | 8.23 |  |  | 25.5 (≈ 10.6 µg/mL) | > 60 | 8.01 | 5.70 | 0 | 11.2 |  |  | > 60 |  | 7.91 | 0
CC1=C(C)/C(=C/NC2CCCCCC2)N=C1c1ccc(C)[nH]1 | 37.6 | 8.32 | 0.006 | 100 | 72.3 (≈ 21.5 µg/mL) | 55 | 7.91 | 5.17 | 0 | 25.2 | 0.12 | Not active; None Of The Mouse Cured Out Of Four Tested | 36.8 | Not active; None Of The Mouse Cured Out Of Four Tested | 8.43 | 100
CCC1=C(CC)/C(=C/NC2CCCCCC2)N=C1c1ccc(CC)[nH]1 | 5.29 | 8.34 | 0.03 | 100 | 30.1 (≈ 10.2 µg/mL) | > 60 | 8.14 | 5.44 | 37.6 | 13.3 | 0.012 | Not active; None Of The Mouse Cured Out Of Four Tested | > 60 | Not active; None Of The Mouse Cured Out Of Four Tested | 8.49 | 100
C(/NC1CCCCCC1)=C1/N=C(c2ccc[nH]2)C2=C1OCCO2 | 79.8 | 7.90 | 1.7 |  | 183 (≈ 57.4 µg/mL) | 14.9 |  | 5.11 | 0 | 92.8 | 2.9 |  | 19.5 |  | 7.59 | 31.2
CCN(CC)CCCC(C)Nc1ccnc2cc(Cl)ccc12 (stereo not given) |  |  |  |  |  |  |  |  |  |  |  | Not active; None Of The Mouse Cured Out Of Four Tested |  | Not active; None Of The Mouse Cured Out Of Four Tested |  | 
CC1=C(C)/C(=C/NC2CCCCC2)N=C1c1ccc(C)[nH]1 | 37.3 | 8.31 | 0.053 | 100 | 168 (≈ 47.6 µg/mL) | > 60 | 8.00 | 5.17 | 0 | 13.6 | 0.37 | Not active; None Of The Mouse Cured Out Of Four Tested | 37.2 | Not active; None Of The Mouse Cured Out Of Four Tested | 8.38 | 100
